Reference: patent publication US20250270202A1, “SUBSTITUTED 4-AMINOISOINDOLINE COMPOUND, PREPARATION METHOD THEREFOR, PHARMACEUTICAL COMPOSITION THEREOF, AND USE THEREOF” (SHANGHAI INSTITUTE OF MATERIA MEDICA, CHINESE ACADEMY OF …, priority 2022, published 2025)
Read-outs that look alike come from different tables or passages of the source.

Columns and labels:
Assay type in all cases: cell-based
MV-4-11 cells = assay: Inhibition of MV-4-11 cell proliferation (MTS, 7 days); conditions: Homo sapiens
Protocol: MV-4-11 cells were cultured in IMDM with 10% fetal bovine serum, collected, and diluted to the appropriate cell concentration for a 7-day treatment period. A 96-well plate was used, and 180 μL of cell suspension was added to each well, resulting in a cell count of 2,000 per well. For the control wells, 20 μL of DMSO at a final concentration of 0.2% was added. The compounds were diluted from a 10 mM stock solution in a five-fold gradient, and 20 μL was added to the compound wells (with a final DMSO concentration of 0.2%). The cells were incubated in a 37° C., 5% CO2 incubator for 7 days. After preparing the reaction solution using the MTS reagent kit (Promega, G5430), 20 μL was added to each well, and the cells were incubated in the incubator for 3-4 hours. The absorbance at 490 nm was measured using a microplate reader, with the absorbance at 690 nm as the background value. The final data was calculated as OD490-OD690. The inhibition rate of the compounds was calculated using the formula: […]
The IC50 values for proliferation inhibition were calculated using GraphPad Prism 5.0. The experiments were repeated three times, with three parallel experiments for each, and the mean and standard deviation were calculated.
The cell activity test results are shown in Table 3: A indicates IC50<1 μM, B indicates 1 µM≤IC50≤20 μM, and C indicates IC50>20 μM.

Mino cells = assay: Inhibition of cell proliferation of Mino cells (MTS, 3 days); conditions: Homo sapiens, MINO
Protocol: Mino cells were cultured with RPMI-1640 medium supplemented with 15% fetal bovine serum, and collected. The cell concentration was diluted according to a 3-day treatment period, and 90 μL of the cell suspension was added to each well of a 96-well plate, resulting in 8000 cells per well. For control wells, 10 μL of DMSO at a final concentration of 0.2% was added. The compounds were diluted in a 5-fold gradient from a 10 mM stock solution, and 10 μL of each compound solution was added to the experimental wells (with a final DMSO concentration of 0.2%). The cells were incubated in a 37° C., 5% CO2 incubator for 3 days. After preparing the reaction mixture using the MTS reagent kit (Promega, G5430), 20 μL was added to each well, and the cells were incubated for 3-4 hours at 37° C., 5% CO2.
The absorbance at 490 nm was read using a microplate reader, with the absorbance at 690 nm used as the background. The final raw data was calculated as OD490-OD690. The inhibition rate of the compounds was calculated using the formula: Inhibition rate=(OD DMSO−OD compound)/(OD DMSO−OD blank)×100%. The IC50 values for cell proliferation inhibition of the compounds were fitted using GraphPad Prism 5.0. The experiment was repeated three times, with the average and standard deviation calculated from three parallel experiments each time.

MM.1S cells = assay: Effect of the compound on MM.1S cell proliferation (MTS, 7 days); conditions: Homo sapiens, MM1.S
Protocol: MM.1S cells were cultured in 1640 medium supplemented with 10% fetal bovine serum, then collected and diluted to the desired cell concentration after 7 days of treatment. A total of 180 μL of cell suspension was added to each well in a 96-well cell plate, ensuring 20,000 cells per well. For the control group, 20 μL of 0.2% DMSO was added to each well. Compounds were diluted in a 5-step gradient from a 10 mM stock solution, and 20 μL of each dilution was added to the compound-containing wells (with a final DMSO concentration of 0.2%). The cells were incubated in a 37° C., 5% CO2 incubator for 7 days. Afterward, 20 μL of the MTS reagent (Promega, G5430) was added to each well, followed by incubation for 3-4 hours in a 37° C., 5% CO2 incubator. Absorbance at 490 nm was measured using a microplate reader, with 690 nm absorbance as the background. The final raw data was calculated as OD490-OD690. The compound inhibition rate was calculated using the formula: […]
The IC50 for the compound's proliferative inhibition was fitted using GraphPad Prism 5.0. The experiment was repeated three times, and the average and standard deviation were calculated using three parallel experiments per trial.

[1] = MV4-11, positive compounds, read-out: IC50 in MV-4-11 acute leukemia cells
[2] = MV4-11, 168 h, 7 days, MTS, Table 3, read-out: MV-4-11 Cells Inhibition Activity IC50
[3] = 72 h, 3 days, MTS, Table 2, read-out: Mino Cells Inhibition Activity IC50
[4] = 168 h, 7 days, MTS, Table 1, read-out: MM.1S Cells Inhibition Activity IC50

Question: `Cc1nc2cccc(N)c2c(=O)n1C1CCC(=O)NC1=O` (centres unmarked) [CC-122, reference compound] was tested. Which IC50 (MV-4-11 cells; [1]) did it give?
Answer: > 20000 nM

Question: With `O=C1CCC(N2Cc3c(OCc4ccc(CN5CCOCC5)cc4)cccc3C2=O)C(=O)N1` (centres unmarked) [CC-220, reference compound] as the compound, how does the IC50 (MV-4-11 cells; [2]) read?
Answer: > 20000 nM

Question: And the IC50 (MV-4-11 cells; [1])?
Answer: > 20000 nM

Question: And the IC50 (Mino cells; [3])?
Answer: 60 to 120 nM

Question: What about the IC50 (MM.1S cells; [4]) of the same compound?
Answer: < 15 nM

Question: How did the IC50 (MV-4-11 cells; [2]) turn out when `CC1(C(=O)N2CCC(c3ncc(CNc4cccc5c4C(=O)N(C4CCC(=O)NC4=O)C5=O)o3)CC2)CCC1` (centres unmarked) [Example 1] was run?
Answer: 1000 to 20000 nM

Question: And the IC50 (Mino cells; [3])?
Answer: < 60 nM

Question: What about the IC50 (MM.1S cells; [4]) of the same compound?
Answer: < 15 nM

Question: Which IC50 (MV-4-11 cells; [2]) does the source give for `O=C1CCC(N2C(=O)c3cccc(NCc4cnc(C5CCN(C(=O)C6(c7ccc(F)cc7)CCC6)CC5)o4)c3C2=O)C(=O)N1` (centres unmarked) [Example 2] here?
Answer: < 1000 nM

Question: And the IC50 (Mino cells; [3])?
Answer: < 60 nM

Question: What about the IC50 (MM.1S cells; [4]) of the same compound?
Answer: < 15 nM

Question: What does the source list for `O=C1CCC(N2C(=O)c3cccc(NCc4cnc(C5CCN(C(=O)C67CC8CC(CC(C8)C6)C7)CC5)o4)c3C2=O)C(=O)N1` (centres unmarked) [Example 3, 4-((2-(1-((3r,5r,7r)-adamantane-1-carbonyl)piperidin-4-yl)oxazol-5-yl)methyl)amino)-2-(2,6-dioxopiperidin-3-yl)isoindoline-1,3-dione]?
Answer: IC50 (MV-4-11 cells; [2]): 1000 to 20000 nM; IC50 (Mino cells; [3]): < 60 nM; IC50 (MM.1S cells; [4]): < 15 nM

Question: Which results are given for `O=C1CCC(N2C(=O)c3cccc(NCc4cnc(C5CCN(C(=O)C6(C(F)(F)F)CCC6)CC5)o4)c3C2=O)C(=O)N1` (centres unmarked) [Example 4]?
Answer: IC50 (MV-4-11 cells; [2]): < 1000 nM; IC50 (Mino cells; [3]): < 60 nM; IC50 (MM.1S cells; [4]): < 15 nM

Question: With `O=C1CCC(N2C(=O)c3cccc(NCc4cnc(C5CCN(C(=O)c6ccc(F)cc6)CC5)o4)c3C2=O)C(=O)N1` (centres unmarked) [Example 5] as the compound, how does the IC50 (MV-4-11 cells; [2]) read?
Answer: 1000 to 20000 nM

Question: What about the IC50 (Mino cells; [3]) of the same compound?
Answer: > 120 nM

Question: And the IC50 (MM.1S cells; [4])?
Answer: 15 to 30 nM

Question: What does the source list for `N#Cc1ccc(C(=O)N2CCC(c3ncc(CNc4cccc5c4C(=O)N(C4CCC(=O)NC4=O)C5=O)o3)CC2)c(F)c1` (centres unmarked) [Example 6, 4-(4-(5-(((2-(2,6-dioxopiperidin-3-yl)-1,3-dioxoisindole-4-yl)amino)methyl)oxazol-2-yl)piperidine-1-carbonyl)-3-fluorobenzonitrile]?
Answer: IC50 (MV-4-11 cells; [2]): 1000 to 20000 nM; IC50 (Mino cells; [3]): 60 to 120 nM; IC50 (MM.1S cells; [4]): 30 to 150 nM

Question: `O=C1CCC(N2C(=O)c3cccc(NCc4cnc(C5CCN(C(=O)c6ccc(OC(F)(F)F)cc6)CC5)o4)c3C2=O)C(=O)N1` (centres unmarked) [Example 7] was tested. Which IC50 (MV-4-11 cells; [2]) did it give?
Answer: 1000 to 20000 nM

Question: What about the IC50 (Mino cells; [3]) of the same compound?
Answer: > 120 nM

Question: And the IC50 (MM.1S cells; [4])?
Answer: 15 to 30 nM

Question: `O=C1CCC(N2C(=O)c3cccc(NCc4cnc(C5CCN(C(=O)c6ccc(Cl)cc6Cl)CC5)o4)c3C2=O)C(=O)N1` (centres unmarked) [Example 8] was tested. Which IC50 (MV-4-11 cells; [2]) did it give?
Answer: < 1000 nM

Question: What about the IC50 (Mino cells; [3]) of the same compound?
Answer: 60 to 120 nM

Question: What about the IC50 (MM.1S cells; [4]) of the same compound?
Answer: 15 to 30 nM

Question: With `CC(C)(C)C(=O)N1CCC(c2ncc(CNc3cccc4c3C(=O)N(C3CCC(=O)NC3=O)C4=O)o2)CC1` (centres unmarked) [Example 9] as the compound, how does the IC50 (MV-4-11 cells; [2]) read?
Answer: < 1000 nM

Question: What about the IC50 (MV-4-11 cells; MV4-11, Table 4, values in nM, read-out: Inhibitory Activity of Compounds on Cell Proliferation MV-4-11 IC50) of the same compound?
Answer: 782 nM

Question: And the IC50 (Mino cells; [3])?
Answer: > 120 nM

Question: And the IC50 (Mino cells; Table 4, read-out: Inhibitory Activity of Compounds on Cell Proliferation Mino IC50)?
Answer: 141 nM

Question: And the IC50 (MM.1S cells; [4])?
Answer: < 15 nM

Question: And the IC50 (MM.1S cells; Table 4, read-out: Inhibitory Activity of Compounds on Cell Proliferation MM.1S IC50)?
Answer: 8.8 nM

Question: For `CC1(C(=O)N2CCC(c3ncc(CNc4cccc5c4C(=O)N(C4CCC(=O)NC4=O)C5=O)o3)CC2)CCCCC1` (centres unmarked) [Example 10], which IC50 (MV-4-11 cells; [2]) is on record?
Answer: 1000 to 20000 nM

Question: What about the IC50 (Mino cells; [3]) of the same compound?
Answer: 60 to 120 nM

Question: What about the IC50 (MM.1S cells; [4]) of the same compound?
Answer: < 15 nM

Question: For `O=C1CCC(N2C(=O)c3cccc(NCc4cnc(C5CCN(C(=O)CC67CC8CC(CC(C8)C6)C7)CC5)o4)c3C2=O)C(=O)N1` (centres unmarked) [Example 11], which IC50 (MV-4-11 cells; [2]) is on record?
Answer: < 1000 nM

Question: And the IC50 (Mino cells; [3])?
Answer: < 60 nM

Question: And the IC50 (MM.1S cells; [4])?
Answer: < 15 nM

Question: With `O=C1CCC(N2C(=O)c3cccc(NCc4cnc(C5CCN(Cc6ccc(F)cc6)CC5)o4)c3C2=O)C(=O)N1` (centres unmarked) [Example 12] as the compound, how does the IC50 (MV-4-11 cells; [2]) read?
Answer: < 1000 nM

Question: And the IC50 (Mino cells; [3])?
Answer: > 120 nM

Question: What about the IC50 (MM.1S cells; [4]) of the same compound?
Answer: 30 to 150 nM

Question: Which IC50 (MV-4-11 cells; [2]) does the source give for `N#Cc1ccc(CN2CCC(c3ncc(CNc4cccc5c4C(=O)N(C4CCC(=O)NC4=O)C5=O)o3)CC2)c(F)c1` (centres unmarked) [Example 13] here?
Answer: 1000 to 20000 nM

Question: And the IC50 (Mino cells; [3])?
Answer: > 120 nM

Question: And the IC50 (MM.1S cells; [4])?
Answer: 30 to 150 nM
